Where two headings read alike, the source gives them in different places.
Assays:
Test in all cases: Kinase selectivity, P33-radiolabeled assay
Type in all cases: biochemical
ABL1 = biological target: T1, ABL1 (Homo sapiens, UniProt P00519); details: 10 μM ATP
T1 construct: purchased Reaction Biology Corp
Outline: (§1)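 ATP at 10 μM; test article at 10 μM, single point, two replicates. Output is activity as % of DMSO.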

CK1g2 = biological target: T2, CK1g2 (Homo sapiens, UniProt P78368); details: 10 μM ATP
T2 construct: purchased Reaction Biology Corp
Outline: as §1

FES/FPS = biological target: T3, FES/FPS (Homo sapiens, UniProt P07332); details: 10 μM ATP
T3 construct: purchased Reaction Biology Corp
Outline: as §1

MEK1 = biological target: T4, MEK1 (Homo sapiens, UniProt Q02750); details: 10 μM ATP
T4 construct: purchased Reaction Biology Corp
Outline: as §1

MEK2 = biological target: T5, MEK2 (Homo sapiens, UniProt P36507)
T5 construct: purchased Reaction Biology Corp
Outline: as §1

MUSK = biological target: T6, MUSK (Homo sapiens, UniProt O15146); details: 10 μM ATP
T6 construct: purchased Reaction Biology Corp
T6 sequence (O15146 24-869): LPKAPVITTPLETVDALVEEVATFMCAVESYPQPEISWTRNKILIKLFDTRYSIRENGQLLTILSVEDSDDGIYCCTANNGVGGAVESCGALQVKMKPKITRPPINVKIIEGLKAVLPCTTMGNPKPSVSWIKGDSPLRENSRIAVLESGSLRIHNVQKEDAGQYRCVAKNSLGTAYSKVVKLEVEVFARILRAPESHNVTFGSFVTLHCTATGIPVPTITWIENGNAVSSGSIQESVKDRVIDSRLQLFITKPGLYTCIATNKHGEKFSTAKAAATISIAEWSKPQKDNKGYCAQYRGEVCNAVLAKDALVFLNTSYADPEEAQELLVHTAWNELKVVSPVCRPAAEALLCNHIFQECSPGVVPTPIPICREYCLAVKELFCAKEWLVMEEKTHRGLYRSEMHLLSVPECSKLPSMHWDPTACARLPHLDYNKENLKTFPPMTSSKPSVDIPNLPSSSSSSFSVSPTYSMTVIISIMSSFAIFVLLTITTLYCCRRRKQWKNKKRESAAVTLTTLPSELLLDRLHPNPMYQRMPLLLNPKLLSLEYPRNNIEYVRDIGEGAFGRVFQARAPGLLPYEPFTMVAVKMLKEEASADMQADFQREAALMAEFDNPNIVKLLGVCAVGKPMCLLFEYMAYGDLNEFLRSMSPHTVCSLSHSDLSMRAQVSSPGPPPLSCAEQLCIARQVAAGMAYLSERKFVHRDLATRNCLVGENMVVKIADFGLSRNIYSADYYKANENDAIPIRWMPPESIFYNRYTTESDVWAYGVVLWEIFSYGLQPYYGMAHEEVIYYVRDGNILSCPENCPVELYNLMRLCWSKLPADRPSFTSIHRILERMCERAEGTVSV
Outline: as §1

PHKg1 = biological target: T7, PHKg1 (Homo sapiens, UniProt Q16816); details: 10 μM ATP
T7 construct: purchased Reaction Biology Corp
Outline: as §1

PKAcb = biological target: T8, PKAcb (Homo sapiens, UniProt P22694); details: 10 μM ATP
T8 construct: purchased Reaction Biology Corp
Outline: as §1

PLK1 = biological target: T9, PLK1 (Homo sapiens, UniProt P53350); details: 10 μM ATP
T9 construct: purchased Reaction Biology Corp
Outline: as §1

RIPK2 = biological target: T10, RIPK2 (Homo sapiens, UniProt O43353); details: 10 μM ATP
T10 construct: purchased Reaction Biology Corp
Outline: as §1

RON/MST1R = biological target: T11, RON/MST1R (Homo sapiens, UniProt Q04912); details: 10 μM ATP
T11 construct: purchased Reaction Biology Corp
Outline: as §1

TLK2 = biological target: T12, TLK2 (Homo sapiens, UniProt Q86UE8); details: 10 μM ATP
T12 construct: purchased Reaction Biology Corp
Outline: as §1

VRK2 = biological target: T13, VRK2 (Homo sapiens, UniProt Q86Y07); details: 10 μM ATP
T13 construct: purchased Reaction Biology Corp
Outline: as §1

ZAP70 = biological target: T14, ZAP70 (Homo sapiens, UniProt P43403); details: 10 μM ATP
T14 construct: purchased Reaction Biology Corp
T14 sequence (P43403 1-619): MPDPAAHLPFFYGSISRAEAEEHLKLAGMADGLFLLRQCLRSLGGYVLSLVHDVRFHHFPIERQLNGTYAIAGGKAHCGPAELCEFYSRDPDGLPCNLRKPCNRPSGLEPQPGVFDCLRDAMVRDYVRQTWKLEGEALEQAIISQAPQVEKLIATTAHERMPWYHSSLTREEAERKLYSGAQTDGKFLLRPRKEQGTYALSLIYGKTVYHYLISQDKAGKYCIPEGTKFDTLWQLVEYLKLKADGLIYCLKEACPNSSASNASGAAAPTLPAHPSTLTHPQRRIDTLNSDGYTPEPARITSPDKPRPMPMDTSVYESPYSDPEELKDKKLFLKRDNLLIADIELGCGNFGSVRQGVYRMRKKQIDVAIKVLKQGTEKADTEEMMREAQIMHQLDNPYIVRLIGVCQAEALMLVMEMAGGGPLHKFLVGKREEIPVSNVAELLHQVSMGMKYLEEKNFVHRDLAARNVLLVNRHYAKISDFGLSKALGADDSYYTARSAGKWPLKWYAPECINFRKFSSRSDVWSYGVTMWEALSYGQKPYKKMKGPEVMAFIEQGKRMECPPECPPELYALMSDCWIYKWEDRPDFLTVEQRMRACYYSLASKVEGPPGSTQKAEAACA
Outline: as §1

p70S6K/RPS6KB1 = biological target: T15, p70S6K/RPS6KB1 (Homo sapiens, UniProt P23443); details: 10 μM ATP
T15 construct: purchased Reaction Biology Corp
Outline: as §1

[1] = read-out: % Enzyme Activity (relative to DMSO controls) AVG
[2] = read-out: % Enzyme Activity (relative to DMSO controls) Data 1
[3] = read-out: % Enzyme Activity (relative to DMSO controls) Data 2

T3 sequence (P07332 whole entry): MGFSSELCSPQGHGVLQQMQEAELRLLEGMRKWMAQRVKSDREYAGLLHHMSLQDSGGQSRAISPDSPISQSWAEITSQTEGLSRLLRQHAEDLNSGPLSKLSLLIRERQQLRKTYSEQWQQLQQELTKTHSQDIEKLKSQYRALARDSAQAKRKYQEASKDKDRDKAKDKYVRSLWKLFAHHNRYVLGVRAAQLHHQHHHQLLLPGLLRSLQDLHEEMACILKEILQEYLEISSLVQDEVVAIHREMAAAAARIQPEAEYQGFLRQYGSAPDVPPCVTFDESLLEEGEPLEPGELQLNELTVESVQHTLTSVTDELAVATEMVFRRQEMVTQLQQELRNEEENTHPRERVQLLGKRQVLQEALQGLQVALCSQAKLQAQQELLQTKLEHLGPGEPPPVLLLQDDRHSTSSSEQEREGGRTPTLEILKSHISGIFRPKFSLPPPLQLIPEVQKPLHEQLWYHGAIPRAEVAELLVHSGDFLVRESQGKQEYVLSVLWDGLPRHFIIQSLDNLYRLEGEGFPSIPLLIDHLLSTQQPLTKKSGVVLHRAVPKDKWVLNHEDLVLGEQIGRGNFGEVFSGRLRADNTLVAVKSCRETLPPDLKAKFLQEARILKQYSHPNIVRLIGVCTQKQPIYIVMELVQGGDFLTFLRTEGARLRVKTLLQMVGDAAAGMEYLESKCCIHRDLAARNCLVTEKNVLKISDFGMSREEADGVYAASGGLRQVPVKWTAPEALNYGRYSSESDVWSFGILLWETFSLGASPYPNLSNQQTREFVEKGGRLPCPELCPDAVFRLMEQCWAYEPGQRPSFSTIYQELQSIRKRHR
T11 sequence (Q04912 25-1400): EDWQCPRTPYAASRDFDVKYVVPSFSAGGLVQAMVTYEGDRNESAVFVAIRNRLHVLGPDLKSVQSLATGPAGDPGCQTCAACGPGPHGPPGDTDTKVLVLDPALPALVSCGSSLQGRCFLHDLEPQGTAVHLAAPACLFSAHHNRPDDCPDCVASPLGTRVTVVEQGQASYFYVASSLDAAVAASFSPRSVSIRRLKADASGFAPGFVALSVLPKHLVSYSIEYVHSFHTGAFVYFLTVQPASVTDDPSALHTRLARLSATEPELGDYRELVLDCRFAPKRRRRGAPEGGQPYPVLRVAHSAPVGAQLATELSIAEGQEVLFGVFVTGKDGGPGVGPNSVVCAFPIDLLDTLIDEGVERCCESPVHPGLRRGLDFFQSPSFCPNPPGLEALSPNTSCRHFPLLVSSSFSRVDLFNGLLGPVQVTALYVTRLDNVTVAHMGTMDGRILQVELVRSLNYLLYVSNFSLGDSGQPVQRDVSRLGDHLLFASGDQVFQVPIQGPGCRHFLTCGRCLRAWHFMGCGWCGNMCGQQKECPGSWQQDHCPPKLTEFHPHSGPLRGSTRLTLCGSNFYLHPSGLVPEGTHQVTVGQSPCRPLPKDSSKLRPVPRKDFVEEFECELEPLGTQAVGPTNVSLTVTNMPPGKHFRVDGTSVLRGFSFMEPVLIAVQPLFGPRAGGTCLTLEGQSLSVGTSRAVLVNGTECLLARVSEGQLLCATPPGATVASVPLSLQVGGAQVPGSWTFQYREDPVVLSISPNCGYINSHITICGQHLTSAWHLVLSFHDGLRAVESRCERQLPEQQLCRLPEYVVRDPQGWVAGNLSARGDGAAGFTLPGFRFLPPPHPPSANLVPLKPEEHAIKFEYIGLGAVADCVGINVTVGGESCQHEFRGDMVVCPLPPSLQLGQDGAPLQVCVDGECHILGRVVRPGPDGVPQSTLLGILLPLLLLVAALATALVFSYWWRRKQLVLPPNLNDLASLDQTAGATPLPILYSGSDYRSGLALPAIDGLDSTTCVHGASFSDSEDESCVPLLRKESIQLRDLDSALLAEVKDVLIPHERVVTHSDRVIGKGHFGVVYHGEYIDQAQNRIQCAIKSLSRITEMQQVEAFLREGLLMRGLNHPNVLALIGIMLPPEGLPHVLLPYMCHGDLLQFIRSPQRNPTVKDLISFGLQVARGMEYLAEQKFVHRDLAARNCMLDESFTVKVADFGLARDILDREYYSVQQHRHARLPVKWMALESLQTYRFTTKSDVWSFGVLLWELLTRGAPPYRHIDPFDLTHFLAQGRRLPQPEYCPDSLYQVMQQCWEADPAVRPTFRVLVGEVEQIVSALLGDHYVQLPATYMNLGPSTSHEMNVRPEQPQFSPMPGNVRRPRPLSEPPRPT
T15 sequence (P23443 whole entry): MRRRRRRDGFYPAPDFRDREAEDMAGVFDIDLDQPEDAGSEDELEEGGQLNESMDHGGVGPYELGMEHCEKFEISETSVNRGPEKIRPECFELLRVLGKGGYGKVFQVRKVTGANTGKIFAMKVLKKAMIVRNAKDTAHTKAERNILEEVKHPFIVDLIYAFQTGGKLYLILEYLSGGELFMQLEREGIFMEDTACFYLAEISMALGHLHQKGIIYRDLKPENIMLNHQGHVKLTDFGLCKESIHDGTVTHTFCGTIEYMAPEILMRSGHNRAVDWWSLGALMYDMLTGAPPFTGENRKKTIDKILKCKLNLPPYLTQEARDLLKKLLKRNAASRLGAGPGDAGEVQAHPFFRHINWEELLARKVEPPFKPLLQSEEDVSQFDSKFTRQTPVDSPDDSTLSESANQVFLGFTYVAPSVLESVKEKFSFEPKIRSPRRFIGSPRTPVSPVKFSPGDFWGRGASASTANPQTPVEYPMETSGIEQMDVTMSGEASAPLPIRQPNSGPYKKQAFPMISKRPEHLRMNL
T1 sequence (P00519 whole entry): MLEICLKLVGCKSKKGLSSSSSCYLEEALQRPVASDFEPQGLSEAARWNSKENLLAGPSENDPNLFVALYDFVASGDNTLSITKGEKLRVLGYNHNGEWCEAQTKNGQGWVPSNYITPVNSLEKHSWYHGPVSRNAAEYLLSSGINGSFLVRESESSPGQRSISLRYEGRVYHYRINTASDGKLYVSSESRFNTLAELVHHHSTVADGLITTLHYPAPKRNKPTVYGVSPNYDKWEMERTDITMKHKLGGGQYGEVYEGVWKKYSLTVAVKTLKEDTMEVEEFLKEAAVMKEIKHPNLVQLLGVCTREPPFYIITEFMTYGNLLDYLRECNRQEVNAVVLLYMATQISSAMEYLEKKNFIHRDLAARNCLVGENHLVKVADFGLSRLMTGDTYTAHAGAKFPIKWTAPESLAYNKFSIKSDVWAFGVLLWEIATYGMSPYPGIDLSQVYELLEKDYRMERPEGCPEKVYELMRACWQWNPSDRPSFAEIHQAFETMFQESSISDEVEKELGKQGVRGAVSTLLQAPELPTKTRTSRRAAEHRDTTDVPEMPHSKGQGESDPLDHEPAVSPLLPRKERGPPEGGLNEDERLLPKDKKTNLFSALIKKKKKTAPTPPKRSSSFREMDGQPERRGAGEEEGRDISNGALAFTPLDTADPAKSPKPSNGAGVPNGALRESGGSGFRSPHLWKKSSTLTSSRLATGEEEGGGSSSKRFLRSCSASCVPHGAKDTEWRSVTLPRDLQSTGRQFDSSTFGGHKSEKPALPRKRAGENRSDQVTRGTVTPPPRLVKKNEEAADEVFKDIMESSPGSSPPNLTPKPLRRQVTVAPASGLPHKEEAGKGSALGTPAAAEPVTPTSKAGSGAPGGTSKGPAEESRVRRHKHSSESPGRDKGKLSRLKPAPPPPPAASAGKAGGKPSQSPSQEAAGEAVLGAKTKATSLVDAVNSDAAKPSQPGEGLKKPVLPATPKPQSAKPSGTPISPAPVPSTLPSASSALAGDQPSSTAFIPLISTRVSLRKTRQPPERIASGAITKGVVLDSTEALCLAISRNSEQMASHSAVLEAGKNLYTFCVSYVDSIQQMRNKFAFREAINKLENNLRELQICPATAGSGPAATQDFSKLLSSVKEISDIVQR
T7 sequence (Q16816 whole entry): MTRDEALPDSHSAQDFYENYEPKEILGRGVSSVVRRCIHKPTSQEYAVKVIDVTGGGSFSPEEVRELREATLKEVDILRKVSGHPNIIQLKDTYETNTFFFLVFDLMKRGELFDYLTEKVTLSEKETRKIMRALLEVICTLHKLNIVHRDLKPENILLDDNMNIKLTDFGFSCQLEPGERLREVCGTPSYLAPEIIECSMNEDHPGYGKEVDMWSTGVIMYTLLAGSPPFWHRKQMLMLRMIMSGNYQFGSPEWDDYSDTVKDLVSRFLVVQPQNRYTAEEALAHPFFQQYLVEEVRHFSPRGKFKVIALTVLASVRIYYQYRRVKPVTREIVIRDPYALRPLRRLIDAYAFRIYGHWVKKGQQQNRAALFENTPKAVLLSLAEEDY
T13 sequence (Q86Y07 whole entry): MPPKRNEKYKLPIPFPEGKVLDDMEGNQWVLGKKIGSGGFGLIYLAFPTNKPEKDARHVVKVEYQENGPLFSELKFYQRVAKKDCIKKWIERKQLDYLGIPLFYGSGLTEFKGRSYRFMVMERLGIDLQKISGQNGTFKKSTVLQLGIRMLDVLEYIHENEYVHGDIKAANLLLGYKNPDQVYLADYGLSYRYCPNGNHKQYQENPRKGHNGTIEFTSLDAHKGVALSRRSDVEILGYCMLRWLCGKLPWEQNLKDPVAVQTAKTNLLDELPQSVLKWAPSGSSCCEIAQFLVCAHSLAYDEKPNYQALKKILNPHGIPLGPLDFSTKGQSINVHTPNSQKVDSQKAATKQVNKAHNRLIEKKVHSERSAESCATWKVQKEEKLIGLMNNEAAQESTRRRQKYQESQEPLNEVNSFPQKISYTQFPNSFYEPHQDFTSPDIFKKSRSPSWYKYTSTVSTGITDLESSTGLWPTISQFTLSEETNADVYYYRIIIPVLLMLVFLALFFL

CC(C)(C)C(=O)N1N=CC[C@H]1c1ccccc1 [GSK′963]
remaining activity at 10 µM (ABL1; [1]): 99.3% | remaining activity at 10 µM (ABL1; [2]): 102% | remaining activity at 10 µM (ABL1; [3]): 96.9% | remaining activity at 10 µM (CK1g2; [1]): 112% | remaining activity at 10 µM (CK1g2; [2]): 112% | remaining activity at 10 µM (CK1g2; [3]): 111% | remaining activity at 10 µM (FES/FPS; [1]): 91.3% | remaining activity at 10 µM (FES/FPS; [2]): 93.2% | remaining activity at 10 µM (FES/FPS; [3]): 89.5% | remaining activity at 10 µM (MEK1; [1]): 103% | remaining activity at 10 µM (MEK1; [2]): 103% | remaining activity at 10 µM (MEK1; [3]): 103% | remaining activity at 10 µM (MEK2; 10 uM, 10 μM ATP, read-out: % Enzyme Activity (relative to DMSO controls) AVG): 102% | remaining activity at 10 µM (MEK2; 10 uM, 10 μM ATP, read-out: % Enzyme Activity (relative to DMSO controls) Data 2): 103% | remaining activity at 10 µM (MEK2; [2]): 101% | remaining activity at 10 µM (MUSK; [1]): 99.9% | remaining activity at 10 µM (MUSK; [2]): 99.2% | remaining activity at 10 µM (MUSK; [3]): 100% | remaining activity at 10 µM (PHKg1; [1]): 102% | remaining activity at 10 µM (PHKg1; [2]): 103% | remaining activity at 10 µM (PHKg1; [3]): 101% | remaining activity at 10 µM (PKAcb; [1]): 111% | remaining activity at 10 µM (PKAcb; [2]): 110% | remaining activity at 10 µM (PKAcb; [3]): 113% | remaining activity at 10 µM (PLK1; [1]): 103% | remaining activity at 10 µM (PLK1; [2]): 105% | remaining activity at 10 µM (PLK1; [3]): 101% | remaining activity at 10 µM (RIPK2; [1]): 110% | remaining activity at 10 µM (RIPK2; [2]): 108% | remaining activity at 10 µM (RIPK2; [3]): 112% | remaining activity at 10 µM (RON/MST1R; [1]): 104% | remaining activity at 10 µM (RON/MST1R; [2]): 106% | remaining activity at 10 µM (RON/MST1R; [3]): 102% | remaining activity at 10 µM (TLK2; [1]): 93.2% | remaining activity at 10 µM (TLK2; [2]): 92.9% | remaining activity at 10 µM (TLK2; [3]): 93.5% | remaining activity at 10 µM (VRK2; [1]): 107% | remaining activity at 10 µM (VRK2; [2]): 107% | remaining activity at 10 µM (VRK2; [3]): 108% | remaining activity at 10 µM (ZAP70; [1]): 111% | remaining activity at 10 µM (ZAP70; [2]): 111% | remaining activity at 10 µM (ZAP70; [3]): 111% | remaining activity at 10 µM (p70S6K/RPS6KB1; [1]): 99.1% | remaining activity at 10 µM (p70S6K/RPS6KB1; [2]): 97.4% | remaining activity at 10 µM (p70S6K/RPS6KB1; [3]): 101%
